1 compound from US20080102042A1, “Oral Composition” (KYOWA HAKKO KOGYO CO., LTD., priority 2004, published 2008) can be followed below.

One assay relates to alveolar pyorrhea. Kind of assay: Test Example 2: injection into the periodontal pocket of a patient with alveolar pyorrhea (big periodontal pocket, loose tooth), then continued toothbrushing. It is filed as in vivo, human. Here is the method: This treatment was carried out after toothbrushing three times a day for two weeks. […] Thereafter, toothbrusing was continuously carried out using a very fine toothbrush with buffered saline (pH 7.0) containing 2.5% by weight of N-acetylhydroxyproline on it with massage of the gingiva and the inside of the periodontal pocket. This toothbrusing was carried out for more than three minutes three times a day.

Assay [1] concerns advanced alveolar pyorrhea. In words: Test Example 1: injection into the periodontal pocket of a patient with advanced alveolar pyorrhea, with gingival massage. It is filed as in vivo, human. Conditions: buffered saline (pH 7.0) containing 2.5% by weight, 0.8 ml into periodontal pocket, gingiva massaged, twice a day for two weeks; one patient. Here is the method:
Buffered saline (pH 7.0) containing 2.5% by weight of N-acetylhydroxyproline (0.8 ml) was injected into the periodontal pocket of a patient with advanced alveolar pyorrhea and the gingiva was lightly massaged.

The mark [2] stands for this setting: buffered saline (pH 7.0) containing 2.5% by weight, 0.8 ml into periodontal pocket, after toothbrushing three times a day for two weeks, one patient.

On to `CC(=O)N1C[C@H](O)C[C@H]1C(=O)O` [N-acetylhydroxyproline, N-acetyl-trans-4-hydroxy-L-proline], for which, in the assay on alveolar pyorrhea (setting [2]), the “looseness of the tooth” value was “remarkably improved” and the “pain of alveolar pyorrhea” value is on record as “completely disappeared”. Also, the “healthy state without pain or looseness of tooth (prevention of recurrence)” value in the assay on alveolar pyorrhea (thereafter continued toothbrushing with buffered saline (pH 7.0) containing 2.5% by weight, more than three minutes three times a day) is reported as “could be maintained”. Besides, in assay [1], the “symptoms of alveolar pyorrhea” value is recorded as “remarkably improved”.
